For one data set, the system named is human red blood cells. The following applies: human.
The next data set concerns A. baumannii ATCC 19606. Kind of data set: MIC against A. baumannii ATCC 19606, CO-ADD. The following applies: Acinetobacter baumannii, ATCC19606; A. baumanii ATCC 19606; mean of two experiments; read-out: MIC A. b. Format: cell-based. The text has this: (§1) Antimicrobial evaluation of the pure compounds against A. baumannii ATCC 19606, Candida albicans ATCC 90028, Cryptococcus neoformans ATCC 208821, E. coli ATCC 25922, K. pneumoniae ATCC 700603, P. aeruginosa ATCC 27853, and S. aureus ATCC 43300 (MRSA) was undertaken at the Community for Open Antimicrobial Drug Discovery at The University of Queensland (St. Lucia, Queensland, Australia) according to standard protocols as previously described.

For the next data set, the system named is E. coli ATCC 25922. Kind of data set: MIC against E. coli ATCC 25922, CO-ADD. The following applies: Escherichia coli, ATCC25922; E. coli ATCC 25922; mean of two experiments; read-out: MIC E. c. The data set is classed as cell-based.
Description: as §1

The next data set concerns Bacillus subtilis. On the set-up: method as in PMID 4629229. As to conditions: disk diffusion assays; cited from earlier work. A general note: Agar diffusion results depend on both activity and mobility in agar.
Another data set is described as follows: in vitro. The following applies: human.
In another data set the test system is M. marinum BSG101. Kind of data set: Antimycobacterial bioluminescence assay of pure compounds, M. marinum. As to conditions: Mycobacterium marinum, BSG101, 72 h.
Data set [1] relates to C. neoformans ATCC 208821. Kind of data set: MIC against C. neoformans ATCC 208821, CO-ADD. Format: cell-based. The following applies: Cryptococcus neoformans, ATCC208821; C. neoformans ATCC 208821; mean of two experiments; read-out: MIC C. n.
Description: as §1

The subject of another data set is P. aeruginosa ATCC 27853. Kind of data set: MIC against P. aeruginosa ATCC 27853, CO-ADD. Format: cell-based. As to conditions: Pseudomonas aeruginosa, ATCC27853; P. aeruginosa ATCC 27853; mean of two experiments; read-out: MIC P. a.
Description: as §1

The test system of a further data set is C. albicans ATCC 90028. Kind of data set: MIC against C. albicans ATCC 90028, CO-ADD. Format: cell-based, Candida albicans.
Description: as §1

For another data set, the system named is Aspergillus flavus. On the set-up: method as in PMID 4629229, PMID 9797310, PMID 19801865. As to conditions: cited from earlier work.
Data set [2] relates to S. aureus ATCC 43300 (MRSA). Kind of data set: MIC against S. aureus ATCC 43300 (MRSA), CO-ADD. The data set is classed as cell-based, Staphylococcus aureus. The following applies: Staphylococcus aureus; S. aureus ATCC 43300 (MRSA); mean of two experiments; read-out: MIC S. a.
Description: as §1

A further data set concerns E. coli. Also noted: method as in PMID 4629229. The following applies: disk diffusion assays; cited from earlier work.
Data set [3] concerns K. pneumoniae ATCC 700603. Kind of data set: MIC against K. pneumoniae ATCC 700603, CO-ADD. The data set is classed as cell-based. As to conditions: Klebsiella pneumoniae, ATCC700603; K. pneumoniae ATCC 700603; mean of two experiments; read-out: MIC K. p.
Description: as §1

Values after ≈ are worked out from the molar mass of the structure shown.

By MIC is commonly meant the smallest concentration in the dilution series that meets the test's criterion for growth inhibition.

Description for M. marinum BSG101: Antimicrobial evaluation against M. abscessus and M. marinum was undertaken using in-house assays with the bioluminescent derivatives M. abscessus BSG301 [63] and M. marinum BSG101 [64]. […] Specifically, mycobacterial cultures were grown with shaking at 200 rpm in Middlebrook 7H9 broth (Fort Richard, Auckland, New Zealand) supplemented with 10% Middlebrook ADC enrichment media (Fort Richard, Auckland, New Zealand), 0.4% glycerol (Sigma-Aldrich, St. Louis, MO, USA), and 0.05% tyloxapol (Sigma-Aldrich, St. Louis, MO, USA). M. abscessus was grown at 37 °C and M. marinum at 28 °C. Cultures were grown until they reached the stationary phase (approximately 3–5 days for M. abscessus BSG301 and 7–10 days for M. marinum BSG101) and then diluted in MHB supplemented with 10% Middlebrook ADC enrichment media and 0.05% tyloxapol to give an optical density at 600 nm (OD600) of 0.001, which is the equivalent of ~10^6 bacteria per mL. Pure compounds were dissolved in DMSO and added to the wells of a black 96-well plate (Nunc, Thermo Scientific, Waltham, MA, USA) at doubling dilutions with a maximum concentration of 128 mg/mL. […] Bacterial luminescence was measured at regular intervals over 72 h using a Victor X-3 luminescence plate reader with an integration time of 1 s. […]
Description for in vitro: All compounds were also evaluated for their cytotoxicity against human embryonic kidney cells (HEK-293) and any haemolytic activity against human red blood cells.

In the data set with human red blood cells, `C[C@@H]1C[C@H]2O[C@@H]2/C=C\C=C\C(=O)Cc2c(Cl)c(O)cc(O)c2C(=O)O1` [compound 10, radicicol] registered an HC10 of more than 88 µM. In addition, the minimal inhibitory concentration (MIC) was more than 88 µM in the data set with A. baumannii ATCC 19606; more than 88 µM in the data set on E. coli ATCC 25922; 64 µg/mL (≈ 175 µM) in the data set on M. marinum BSG101; more than 88 µM in [1]; more than 88 µM in the data set with P. aeruginosa ATCC 27853; 44 µM (≈ 16.1 µg/mL) with C. albicans ATCC 90028 (Candida albicans, ATCC90028, C. albicans ATCC 90028, mean of two experiments, read-out: MIC C. a). For the same molecule, the minimal inhibitory concentration (MIC) in data set [2] and in [3] was more than 88 µM each time. In addition, the “activity against B. subtilis” value with Bacillus subtilis is recorded as “active”. This molecule also showed a CC50 in the data set “in vitro” of more than 88 µM. Besides, the “antifungal activity against C. albicans” value in the data set with C. albicans ATCC 90028 (C. albicans) is “moderate antifungal activity”. Further, the “activity against Aspergillus flavus” value in the data set with Aspergillus flavus is given as “activity”. In addition, in the data set with E. coli, the “activity against E. coli” value was “none of the compounds were active”.

The record behind these values is paper PMC9920077, “Antimicrobial Natural Products from Plant Pathogenic Fungi” (Molecules, 2023).
